Series [1] concerns neutrophil migration. The note with it: cited from earlier work.
The conditions of series [2]: in vivo; cited from earlier work.
In series [3] the test system is preconstricted rat aorta. The note with it: cited from earlier work.
Series [4] has as its system rat model of hypertension. The following applies: cited from earlier work.
Series [5] deals with T1, ROCK II (Homo sapiens, UniProt O75116). The following applies: cited from earlier work.
The target in series [6] is T1, ROCK II. The following applies: cited from earlier work. The source holds these as a separate data set.
Series [7] deals with human ROCK I (Homo sapiens, UniProt Q13464). The note with it: cited from earlier work.
Chain of human ROCK I (Q13464 whole entry): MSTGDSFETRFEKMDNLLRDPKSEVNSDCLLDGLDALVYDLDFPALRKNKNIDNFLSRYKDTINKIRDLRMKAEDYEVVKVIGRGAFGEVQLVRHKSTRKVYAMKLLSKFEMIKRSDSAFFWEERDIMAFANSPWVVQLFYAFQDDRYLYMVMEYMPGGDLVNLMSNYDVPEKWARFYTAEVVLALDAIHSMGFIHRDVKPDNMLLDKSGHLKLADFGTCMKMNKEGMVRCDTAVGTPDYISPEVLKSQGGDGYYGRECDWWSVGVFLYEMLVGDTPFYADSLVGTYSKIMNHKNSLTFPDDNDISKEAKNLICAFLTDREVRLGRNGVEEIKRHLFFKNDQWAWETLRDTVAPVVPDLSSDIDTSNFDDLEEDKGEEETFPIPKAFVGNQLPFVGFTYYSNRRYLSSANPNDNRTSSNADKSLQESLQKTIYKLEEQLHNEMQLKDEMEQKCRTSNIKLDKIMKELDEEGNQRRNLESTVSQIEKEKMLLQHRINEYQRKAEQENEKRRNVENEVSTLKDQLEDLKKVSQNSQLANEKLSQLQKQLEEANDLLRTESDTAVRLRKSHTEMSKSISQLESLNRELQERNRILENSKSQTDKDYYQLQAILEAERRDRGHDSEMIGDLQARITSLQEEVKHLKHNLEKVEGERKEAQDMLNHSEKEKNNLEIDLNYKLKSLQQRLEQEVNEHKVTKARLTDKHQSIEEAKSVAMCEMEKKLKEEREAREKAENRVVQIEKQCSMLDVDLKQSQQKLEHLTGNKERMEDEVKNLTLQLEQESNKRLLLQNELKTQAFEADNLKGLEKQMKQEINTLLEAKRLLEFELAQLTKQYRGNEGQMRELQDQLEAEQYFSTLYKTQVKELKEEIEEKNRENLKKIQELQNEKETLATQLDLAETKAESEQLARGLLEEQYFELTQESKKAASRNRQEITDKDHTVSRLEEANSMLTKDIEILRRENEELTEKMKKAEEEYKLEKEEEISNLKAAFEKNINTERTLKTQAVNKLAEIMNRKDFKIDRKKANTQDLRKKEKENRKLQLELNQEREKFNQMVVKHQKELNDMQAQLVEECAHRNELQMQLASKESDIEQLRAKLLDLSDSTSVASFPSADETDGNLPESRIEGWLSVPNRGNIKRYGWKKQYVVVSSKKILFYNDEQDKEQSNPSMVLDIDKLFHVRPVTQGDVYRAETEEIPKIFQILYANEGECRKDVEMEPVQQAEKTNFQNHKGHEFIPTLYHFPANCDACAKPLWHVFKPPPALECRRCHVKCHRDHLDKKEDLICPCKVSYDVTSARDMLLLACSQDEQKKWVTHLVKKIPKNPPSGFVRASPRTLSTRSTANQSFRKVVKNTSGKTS
Series [8] relates to rat models of inflammatory and noninflammatory arthritic pain. The note with it: cited from earlier work.
The subject of series [9] is ROCK. The following applies: cited from earlier work.
In series [10] the test system is animal models of subarachnoid hemorrhage (SAH). The following applies: cited from earlier work.
The test system of series [11] is C3B6 mice (GVHD model). As to the kind of experiment: GVHD-associated weight loss and diarrhea in C3B6 mice. The series is classed as in vivo, mouse. The procedure:
It is well known that weight loss occurs in patients with GVHD. Jacobsohn D A, et al., Bone Marrow […]. 29(3): 231-236 (2002). […] C3B6 mice were treated according to Example 1. […] Despite the similar initial weight losses of Fasudil® treated and untreated T cell recipients, the two groups had different rates of diarrhea. […] Diarrhea resolved by the fourth week among survivors in both groups.

In series [12] the test system is responding splenocytes from C3B6 hosts. As to the kind of experiment: mouse IFN-γ ELISPOT after one-way mixed lymphocyte reaction of host splenocytes. The series is classed as cell-based. How it is done:
Classically, a MLR is carried out by co-incubating lymphocytes from two strains that differ in histocompatibility genes for several days, and the proliferative response of T cells of one lymphocyte population to histocompatibility antigens of the other then measured.
Secretion of IFN-γ by responder cells in a MLR was used as an indicator of cytotoxic T lymphocyte function (i.e., alloreactivity). Briefly, spleens from C3B6 mice treated according to Example 1 were harvested at day 10 (C3H donor T cells migrating to the spleen with few de novo generated T cells emigrating from the host thymus) or at day 84 (spleens containing newly generated T cells maturing within the host thymus; i.e., allotolerant of host B6 parental antigens) post-transplant for use as responders. Spleens from C3H, C3B6 and DBA mice (Jackson Laboratory) were harvested for use as stimulators. Spleens were homogenized and the cells were washed twice with Phosphate Buffered Saline (PBS) (Sigma Aldrich, St. Louis, Mo., Catalog No. P5493, or equivalent). Red blood cells were separated from lymphocytes using Ficoll®. Briefly, cells were transferred to 50 mL conical tubes containing 15 mL of Ficoll®-Paque PLUS (GE Healthcare, Waukesha, Wis., Catalog No. 17-1440-03) and centrifuged at 800 rcf (1,900-2,000 rpm) for 20 minutes with centrifuge break off. After centrifugation, the buffy coat layer (containing lymphocytes) was removed and transferred to a new 50 mL conical tube. Phosphate-buffered saline (PBS) without calcium and magnesium (Gibco, Life Technologies, Carlsbad, Calif., Catalog No. 10010-023 or equivalent) was added to the buffy coat layer so that the total volume in the conical tube is equal to 50 mL. The buffy coat layer in PBS was centrifuged at 250 rcf (1,200 rpm) for 10 minutes with centrifuge brake applied. After centrifugation, the PBS was aspirated and the lymphocyte pellet was resuspended in 48 mL of PBS. Lymphocytes resuspended in PBS were centrifuged at 250 rcf (1,200 rpm) for 10 minutes with centrifuge break applied. PBS was aspirated and PBMC pellet resuspended in 12.5% Bovine Serum Albumin (BSA) (Sigma-Aldrich, St. Louis, Mo., Catalog No. A9418-5G or equivalent) in RPMI medium (Sigma-Aldrich, St. Louis, Mo., Catalog No. R7388 or equivalent). Stimulator lymphocytes (from C3H, C3B6 and DBA mouse spleens) were irradiated for 2.5 minutes (2,000 RAD) in a cesium irradiator.
One-way MLRs were performed by mixing 1×10^5 lymphocytes from both stimulator and responder cells in a 96-well ELISPOT (eBioscience, San Diego, Calif., Catalog No. 88-7384, or equivalent) capture plate coated with anti-mouse IFN-γ antibody according to manufacturer's protocol. […]

Series [13] concerns CFSE labeled splenic lymphocytes from C3B6 hosts. The series is described as follows: CFSE labeling with flow-based assessment of splenic lymphocyte division in one-way MLR. The series is classed as cell-based, mouse. The following applies: day 98 survivor mice. How it is done: Carboxyfluorescein […] succinimidyl ester (CFSE) labeling (Molecular Probes, Carlsbad, Calif., Catalog No. C34554, or equivalent) with flow cytometry detection was employed to assess lymphocyte cell division in response to alloantigen recognition. Briefly, lymphocytes from responders and stimulators were harvested as described above. For this experiment, sources of stimulator cells included C3H, C3B6 and Balb/c mice. Next, lymphocytes from responders were incubated in CFSE prepared according to manufacturer's protocol at 37° C. for 10 minutes. The staining was quenched by the addition of 5 volumes of ice-cold culture media (12.5% Bovine Serum Albumin (BSA) in RPMI) to the lymphocytes. Lymphocytes were incubated on ice for 5 minutes before pelleting by centrifugation. After centrifugation, the lymphocytes were washed by resuspending and pelleting 3 times in fresh culture media. One-way MLRs were performed by mixing 1×10^5 lymphocytes from both stimulator and CFSE responder cells in a 96-well tissue culture plate (Corning Costar, Tewksbury, Mass., Catalog No. CLS3585 or equivalent). […] After 5 days of incubation, the cells were harvested and analyzed using a flow cytometer with 488 nm excitation and emission filters appropriate for fluorescein. […]

Series [14] relates to SAH patients. The note with it: over 1400 SAH patients; cited from earlier work.
Series [15] deals with C3B6 mice (GVHD model). The series is described as follows: GVHD survival in irradiated C3B6 F1 mice given ATBM and donor T cells. The note with it: ATBM + T cells + Fasudil i.p. and p.o., n = 26.
For series [16], the system named is C3B6 mice (GVHD model). The series is described as follows: GVHD-associated skin inflammation in C3B6 mice. The series is classed as in vivo, mouse. The following applies: ATBM+T cells+Fasudil recipient mice. The procedure: Skin is most commonly affected and usually the first organ involved in GVHD. Ferrara J L M, et al., Lancet. 373(9674): 1550-1561 (2009). In this study, C3B6 mice were used to determine the effect of ROCK inhibitors on GVHD-associated skin inflammation.
C3B6 mice were treated according to Example 1. […] . Skin inflammation in C3B6 treated mice occurred in the fourth week and gradually waned over a two week-period.

Series [17] deals with small intestinal crypts. As to the kind of experiment: small intestine tissue sections of 90 day survivor mice. The series is classed as in vivo, mouse. The following applies: FIG. 7. From the text: (B) Limited inflammation within dashed lines of basal layer and lamina propria, with intact crypts, in 90 day survivor Fasudil® treated mice.
Series [18] deals with transplant patients (IT GVHD). The note with it: cited from earlier work.

“Also recorded” adds a separate entry of the source. Structures can show the parent of a compound that is named as a salt. Where two headings read alike, the source gives them in different places.

T1 sequence (O75116 whole entry): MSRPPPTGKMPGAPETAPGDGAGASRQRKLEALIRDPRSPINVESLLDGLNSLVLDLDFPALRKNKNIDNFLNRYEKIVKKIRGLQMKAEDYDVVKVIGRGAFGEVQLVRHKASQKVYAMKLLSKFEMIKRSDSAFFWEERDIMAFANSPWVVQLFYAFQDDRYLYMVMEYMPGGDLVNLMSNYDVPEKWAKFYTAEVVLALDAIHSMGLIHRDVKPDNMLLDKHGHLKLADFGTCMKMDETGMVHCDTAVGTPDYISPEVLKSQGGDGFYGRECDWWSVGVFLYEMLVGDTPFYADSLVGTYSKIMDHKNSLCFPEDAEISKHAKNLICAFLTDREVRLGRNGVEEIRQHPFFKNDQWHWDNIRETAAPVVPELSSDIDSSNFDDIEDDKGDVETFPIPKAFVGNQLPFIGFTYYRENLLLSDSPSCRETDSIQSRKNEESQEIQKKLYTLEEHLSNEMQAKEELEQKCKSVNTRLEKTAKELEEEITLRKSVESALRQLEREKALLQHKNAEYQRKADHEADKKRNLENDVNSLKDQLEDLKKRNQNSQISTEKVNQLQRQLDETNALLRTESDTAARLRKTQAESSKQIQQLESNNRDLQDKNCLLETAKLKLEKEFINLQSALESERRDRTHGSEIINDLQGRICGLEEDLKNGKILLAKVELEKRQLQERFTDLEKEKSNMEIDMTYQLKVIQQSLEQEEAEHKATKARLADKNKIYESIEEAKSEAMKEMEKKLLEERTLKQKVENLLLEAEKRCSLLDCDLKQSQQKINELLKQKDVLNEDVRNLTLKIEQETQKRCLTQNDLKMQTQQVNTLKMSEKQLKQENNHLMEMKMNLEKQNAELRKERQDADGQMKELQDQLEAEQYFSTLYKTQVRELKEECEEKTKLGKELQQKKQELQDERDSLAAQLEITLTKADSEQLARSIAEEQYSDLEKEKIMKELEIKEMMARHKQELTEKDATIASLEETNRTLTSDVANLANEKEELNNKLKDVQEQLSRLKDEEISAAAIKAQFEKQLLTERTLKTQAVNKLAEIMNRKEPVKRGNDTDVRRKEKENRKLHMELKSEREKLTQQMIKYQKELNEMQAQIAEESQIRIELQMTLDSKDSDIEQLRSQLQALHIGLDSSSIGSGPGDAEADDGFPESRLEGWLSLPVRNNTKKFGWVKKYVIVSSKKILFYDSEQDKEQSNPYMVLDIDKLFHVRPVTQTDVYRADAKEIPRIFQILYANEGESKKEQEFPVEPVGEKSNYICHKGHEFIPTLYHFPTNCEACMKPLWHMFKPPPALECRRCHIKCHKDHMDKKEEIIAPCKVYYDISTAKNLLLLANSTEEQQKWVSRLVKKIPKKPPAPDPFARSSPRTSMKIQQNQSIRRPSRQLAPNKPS

`Cl.O=c1[nH]ccc2c(S(=O)(=O)N3CCCNCC3)cccc12` [HA 1100 hydrochloride]: the neutrophil migration result in series [1] is “inhibit neutrophil migration”. Further, in [2], the vasodilatory effects result is listed as “potent vasodilatory effects”.

For `CCn1c(-c2nonc2N)nc2cnc(Oc3cccc(NC(=O)c4ccc(OCCN5CCOCC5)cc4)c3)cc21` [GSK 269962], in [3], the vasorelaxation result is “induce vasorelaxation”. Also, in series [4], the blood pressure result is “lower blood pressure”.

For `Cc1cncc2cccc(S(=O)(=O)N3CCCN(C(=O)CN)C[C@@H]3C)c12` [Glycyl-H-1152 dihydrochloride], the IC50 in series [5] was 0.0118 µM.

In the case of `O=C(Nc1ccc(-c2ccncc2)cc1)N[C@H](CO)c1ccccc1` [AS 1892802], the IC50 in series [6] is 0.052 µM; in series [7], 0.122 µM. Moreover, the analgesic effects entry in series [8] is recorded as “exhibits analgesic effects”.

With `c1ccc2c(-c3ccncc3)c[nH]c2c1` [Rockout®], in series [9] (ATP-competitive, reversible), the IC50 is 25 µM. For the same molecule, the “effect on the activation of ROCK” value in [9] is on record as “does not inhibit the activation of ROCK”.

As for `O=S(=O)(c1cccc2cnccc12)N1CCCNCC1` [Fasudil®, Fasudil], the “blood vessel spasm and constriction after subarachnoid bleeding” value in series [10] was “effective in reversing blood vessel spasm and constriction”. Also, in series [11] (between second and third weeks post-transplant), the “mice developing clinically observable diarrhea” value was “less than 20%”. In series [11] (first three weeks post-transplant, roughly the same as ATBM+T cells mice), this molecule showed a weight loss of approximately 25 % total body weight. Also, the subsequent weight recovery result in [11] (most experiments, data not shown) is “recovered more weight than ATBM+T cells recipient mice”. The “Day 10 IFN-γ secreting spleen cell frequencies” value in series [12] (Concanavalin A positive control) was 120.0 per 100,000 cells; in series [12] (irradiated stimulators C3B6F1 (host), 4 day one-way MLR) it was 115.6 per 100,000 cells; in [12] (irradiated stimulators C3H (self), 4 day one-way MLR), 2.3 per 100,000 cells; in [12] (irradiated stimulators DBA (third party), 4 day one-way MLR), 18 per 100,000 cells. Moreover, the “spleen cell division in response to B6C3F1 stimulation” value in [13] (FIG. 6-E) is listed as “strongly responded to B6C3F1 stimulation”. In series [13] (FIG. 6-F), the “spleen cell division in response to Balb/c stimulation” value is reported as “comparable to their response to Balb/c”. In addition, in series [14], the tolerability and safety result is “well tolerated and safe”. The entries for the “Survival Rate (95% CI), 90 day” value in series [15] and in series [15] (listed as Fasudil ®) were 73% and 73% (55%-88%), respectively. Further, the skin inflammation result in series [16] was “did not prevent skin inflammation”. In addition, in series [17], the “small intestinal crypt inflammation” value is given as “minimal small intestinal crypt inflammation”.

For the molecule maraviroc, the “IT GVHD and acute (within 100 days) death” value in series [18] is “prevented IT GVHD and acute (within 100 days) death; also recorded: no acute deaths”.

The values are drawn from patent US9937154B2, “Use of telmisartan to prevent and treat graft versus host disease and other alloimmune and autoimmune diseases” (Hackensack University Medical Center, priority 2015, dated 2018).
